The term IC50 denotes the midpoint of a concentration-inhibition curve.

Test [1] relates to A549. Nature of the test: Cytotoxicity against human A549 cells assessed as reduction in cell viability incubated for 72 hrs by alamar blue assay. As to conditions: A549, 72 h. It counts as functional, cell-based. On the technique in general: The colour change of resazurin is a common sign of viable cells or microbes.
Test [2] has as its system PC-3. Nature of the test: Cytotoxicity against human PC-3 cells assessed as reduction in cell viability incubated for 72 hrs by alamar blue assay. It counts as functional, cell-based. As to conditions: PC-3, 72 h.

Consider `COc1cccc2c1C(=O)c1c(cc3c(c1O)[C@@H](O[C@@H]1O[C@@H](C)[C@H](O)[C@@H](O)[C@H]1OC)[C@H](OC)[C@](C)(O)C3=O)C2=O`, for which the half-inhibitory concentration (IC50) in test [1] worked out at 13800 nM; in test [2], 4300 nM.
Turning to `COc1cccc2c1C(=O)c1c(O)c3c(c(O)c1C2=O)C[C@@](O)(C(C)=O)C[C@@H]3O[C@H]1C[C@H](N)[C@H](O)[C@H](C)O1` [DAUNORUBICIN], the IC50 was determined as 199 nM in test [1] and 170 nM in test [2].
For `COc1cc(O)c2c(c1)C(=O)c1cc3c(c(O)c1C2=O)[C@@H](O[C@@H]1O[C@@H](C)[C@H](OC)[C@@H](O)[C@H]1OC)[C@H](OC)[C@](C)(O)C3=O`, in that order: 2800 nM and 3100 nM.
For `CO[C@H]1[C@H](O[C@@H]2c3c(cc4c(c3O)C(=O)c3c(O)cccc3C4=O)C(=O)[C@@](C)(O)[C@H]2OC)O[C@@H](C)[C@H](O)[C@H]1O` [ARANCIAMYCIN], in that order: 2700 nM and 1100 nM.
The like results for `CC(=O)[C@]1(O)Cc2c(O)c3c(c(O)c2[C@@H](O[C@H]2C[C@H](N)[C@H](O)[C@H](C)O2)C1)C(=O)c1c(O)cccc1C3=O` [CARUBICIN] were, in that order, 13.1 nM and 35 nM.
